Data taken from US7078178B2, “Methods of altering calcium transport” (priority 1999, dated 2006).

How the values were obtained:
[1] = biological target: T1, CaT1 (Rattus norvegicus, UniProt Q9R186); experiment: ^45Ca^2+ uptake assay in Xenopus laevis oocytes expressing CaT1; type: cell-based; conditions: for inhibition of ^45Ca^2+ uptake by di- and trivalent cations: 1 mM Ca^2+, cation 100 μM; for inhibition of ^45Ca^2+ uptake: cation 10 mM
T1 construct: ID; No. 4; expressed in transfected cells; host or cells: Xenopus laevis oocytes injected with synthetic cRNA of the cloned rat cDNA
T1 sequence (Q9R186 41-767): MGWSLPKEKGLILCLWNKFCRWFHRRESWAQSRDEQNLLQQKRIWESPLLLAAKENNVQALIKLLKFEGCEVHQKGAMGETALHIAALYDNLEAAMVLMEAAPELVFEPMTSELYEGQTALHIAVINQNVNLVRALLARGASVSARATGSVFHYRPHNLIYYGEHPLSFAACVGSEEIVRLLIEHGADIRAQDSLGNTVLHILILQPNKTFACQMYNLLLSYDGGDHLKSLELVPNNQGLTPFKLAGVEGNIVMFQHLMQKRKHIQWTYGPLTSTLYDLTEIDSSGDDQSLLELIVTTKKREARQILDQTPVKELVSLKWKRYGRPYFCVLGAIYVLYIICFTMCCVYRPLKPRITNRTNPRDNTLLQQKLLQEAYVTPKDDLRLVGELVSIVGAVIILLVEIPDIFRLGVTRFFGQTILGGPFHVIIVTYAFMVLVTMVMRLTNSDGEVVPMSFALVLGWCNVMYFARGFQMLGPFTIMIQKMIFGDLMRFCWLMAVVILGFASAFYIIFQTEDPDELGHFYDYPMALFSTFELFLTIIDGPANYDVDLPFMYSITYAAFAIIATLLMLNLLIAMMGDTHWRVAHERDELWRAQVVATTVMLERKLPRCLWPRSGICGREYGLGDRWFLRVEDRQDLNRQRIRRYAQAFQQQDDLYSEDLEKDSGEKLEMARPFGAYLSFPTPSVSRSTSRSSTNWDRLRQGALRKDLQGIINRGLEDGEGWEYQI
Description: ^45Ca^2+ uptake assay—Defolliculated Xenopus laevis oocytes were injected with either 50 nl of water or RNA. ^45Ca^2+ uptake was assayed 3 days after injection of poly(A)^+ or 1–3 days a injection of synthetic complementary RNA (cRNA). For expression cloning, oocytes were incubated in modified Barth's solution supplemented with 1 mM SrCl2 (to avoid excessive loading of oocytes with Ca^2+) as well as penicillin, streptomycin and gentamycin at 1 mg/ml. Standard uptake solution contained the following components (in mM): NaCl 100, KCl 2, MgCl2 1, CaCl2 1 (including ^45Ca^2+), Hepes 10, pH 7.5. Uptake was performed at room temperature for 30 minutes (for the expression cloning procedure, 2 hour uptakes were employed), and oocytes were washed 6 times with ice-cold uptake medium plus 20 mM MgCl2. […] Control experiments were performed with the appropriate ethanol and DMSO concentrations. Unless stated specifically, data are presented as means obtained from at least three experiments with 7 to 10 oocytes per group with standard error of the mean (S.E.M.) as the index of dispersion. Statistical significance was defined as having a P value of less than 0.05 as determined by Student's t-test.

[2] = biological target: T1, CaT1; experiment: Two-microelectrode voltage clamp of oocytes expressing CaT1; type: cell-based; conditions: for currents evoked by metal ions / effect on Ca^2+-evoked currents: each at 100 μM; for current as percentage of the current evoked by 5 mM Ca^2+: 5 mM cation, EGTA-injected oocytes clamped at −50 mV, n=17
Description: (§1) Two-microelectrode voltage clamp experiments were performed using standard techniques (see Chen et al., J. Biol. Chem. 274:2773–2779 (1999)) using a commercial amplifier and pCLAMP software (Version 7, Axon Instruments, Inc., Foster City, Calif.). An oocyte was introduced into the chamber containing Ca^2+-free solution and was incubated for about 3 minutes before being clamped at −50 mV and subjected to measurements. In experiments involving voltage ramps or jumps, whole-cell current and voltage were recorded by digitizing at 300 μs/sample and by Bessel filtering at 10 kHz. When recording currents at a holding potential, digitization at 0.2 s/sample and filtering at 20 Hz were employed. Voltage ramping consisted of pre-holding at −150 mV for 200 ms to eliminate capacitive currents and a subsequent linear increase from −150 to +50 mV, with a total duration of […]. Voltage jumping consisted of 150 ms voltage pulses of between −140 and +60 mV, in increments of +20 mV. Steady-state currents were obtained as the average values in the interval from 135 to 145 ms after the initiation of the voltage pulses. For experiments involving voltage-clamped ^45Ca^2+ uptake, Ca^2+-evoked currents and uptake of ^45Ca^2+ were simultaneously measured at −50 mV, using a method similar to that described in Chen et al. (cited above).

[3] = tested on: endogenous Ca^2+-activated chloride-channel currents; experiment: Block of the peak current in voltage-clamped oocytes by chloride channel blockers; type: cell-based, Xenopus laevis; conditions: 5 mM Ca^2+; holding potential −50 mV
Description: as §1, with “above). […]” for “above).”

[4] = tested on: CaT1 mRNA; experiment: Northern analysis of CaT1 mRNA in rat duodenum in vivo
Description: Northern analysis procedures were as follows. Poly(A)^+ RNA (3 μg) from rat tissues were electrophoresed in formaldehyde-agarose gels and transferred to nitrocellulose membranes. The filters were probed with ^32P-labeled full-length CaT1 cDNA, hybridized at 42° C. with a solution containing 50% formamide, 5×SSPE, 2× Denhardt's solution, 0.1% SDS and 100 μg/ml denatured salmon sperm DNA (and washed with 5×SSC/0.1% SDS at 50° C. for 2×30 minutes and 0.1×SSC at 65° C. for 3×30 minutes. Autoradiography was performed at −80° C. for 1 to 2 days.

inhibition of ^45Ca^2+ uptake by di- and trivalent cations [1] | currents evoked by metal ions [2] | effect on Ca^2+-evoked currents [2] | SMILES | further results
 |  |  | [Ca+2] [Ca^2+] | Km ([1]; CaT1 expressed in oocytes, read-out: apparent Michaelis constant (Km) of Ca^2+ uptake): 440 ± 70 µM; plateau value of inward current ([2]; 5 mM Ca^2+, holding potential −50 mV): 20–50 nA
 |  |  | [Ba+2] [Ba^2+] | inhibition of ^45Ca^2+ uptake [1]: only slight inhibitory effects; current as percentage of the current evoked by 5 mM Ca^2+ [2]: 12±2%
 |  |  | O=C(O)c1ccccc1Nc1cccc(C(F)(F)F)c1 [flufenamate] | block of the peak current [3]: could be blocked
 |  |  | C/C=C(/C)C(=O)O[C@H]1C(C)=C2[C@H]([C@@H]1OC(=O)CCCCCCC)[C@@](C)(OC(C)=O)C[C@H](OC(=O)CCC)[C@@]1(O)[C@H]2OC(=O)[C@@]1(C)O [thapsigargin] | CaT1-mediated Ca^2+ activity relative to its baseline activity ([1]; depletion of calcium stores by thapsigargin treatment): about 20%
marked to moderate inhibition | did not evoke measurable currents | inhibited | [Gd+3] [Gd^3+] | 
 |  |  | [Na+] [Na^+] | Ca^2+ entry with extracellular Na^+ ([1]; non-clamped oocytes, Ca^2+ applied for 30 minutes): enhanced; Ca^2+-evoked currents in the presence versus absence of Na^+ ([2]; 100 mM Na^+): slightly lower
marked to moderate inhibition | did not evoke measurable currents | inhibited | [Cu+2] [Cu^2+] | 
no significant effects | did not evoke measurable currents | no observable effects | [Mn+2] [Mn^2+] | 
marked to moderate inhibition | did not evoke measurable currents | inhibited | [La+3] [La^3+] | 
 | did not evoke measurable currents | no observable effects | [Zn+2] [Zn^2+] | 
 |  |  | [Mg+2] [Mg^2+] | inhibition of ^45Ca^2+ uptake [1]: no significant inhibition; blocker of CaT1 [2]: nor an effective blocker; substrate of CaT1 ([2]; up to 20 mM): neither a substrate
 |  |  | [Sr+2] [Sr^2+] | inhibition of ^45Ca^2+ uptake [1]: only slight inhibitory effects; current as percentage of the current evoked by 5 mM Ca^2+ [2]: 20±4%
 |  |  | C=C1/C(=C\C=C2/CCC[C@]3(C)[C@@H]([C@H](C)CCCC(C)(C)O)CC[C@@H]23)C[C@@H](O)C[C@@H]1O [1,25-dihydroxyvitamin D3] | regulation of CaT1 mRNA in rat duodenum [4]: not regulated
 |  |  | COc1cc(CNC(=O)CCCC/C=C/C(C)C)ccc1O [Capsaicin, capsaicin] | stimulation of CaT1-mediated ^45Ca^2+ uptake in oocytes ([1]; capsaicin up to 50 μM): did not stimulate
no significant effects | did not evoke measurable currents | no observable effects | [Fe+3] [Fe^3+] | 
 |  |  | O=C(O)CN(CCOCCOCCN(CC(=O)O)CC(=O)O)CC(=O)O [EGTA, ethylene glycol-bis(β-aminoethylether)-N,N,N′,N′-tetraacetic acid] | increase in Ca^2+ uptake ([1]; EGTA injected into oocytes to a final concentration of 1–2 mM): three- to five-fold increase; effect on overshoot of Ca^2+-evoked inward current ([2]; EGTA injected to a final concentration of 1–2 mM, −50 mV): abolished the overshoot

SMILES | inhibition of ^45Ca^2+ uptake by di- and trivalent cations [1] | currents evoked by metal ions [2] | effect on Ca^2+-evoked currents [2] | further results
[Pb+2] [Pb^2+] | marked to moderate inhibition | did not evoke measurable currents | inhibited | 
[Ni+2] [Ni^2+] |  | did not evoke measurable currents | inhibited | 
[Co+2] [Co^2+] | marked to moderate inhibition | did not evoke measurable currents | inhibited | 
[Cd+2] [Cd^2+] | marked to moderate inhibition | did not evoke measurable currents | inhibited | 
